Molecular target: T1, human GPR40 (Homo sapiens, UniProt O14842)
T1 construct: expressed in transfected cells; host or cells: HEK cells stably expressing the aequorin reporter
Assay: Inositol Phosphate Turnover (IP1) Assay 2
Format: cell-based
Conditions: HEK cells stably expressing human GPR40; compound acoustically transferred; 60 minutes at 37 degrees
Method: Human and mouse GPR40 stable cell-lines were generated in CHO cells stably expressing NFAT BLA (Beta-lactamase). A human GPR40 stable cell-line was generated in HEK cells stably expressing the aequorin expressing reporter. The expression plasmids were transfected using lipofectamine (Life Technologies) following manufacturer's instructions. Stable cell-lines were generated following drug selection.
The assay is performed in 384-well format. HEK cells stably expressing human GPR40 are plated at 15,000 cells per well in growth medium (DMEM/10% fetal calf serum). Cell plates are then incubated 16 hours at 37 degrees in a 5% CO2 incubator.
Measurement of Inositol Phosphate Turnover (IP1) is performed using the CisBio IP-One kit (Part number 62IPAPEB). After the 16 hour incubation, the cells are washed with HEPES buffer and 10 ul of stimulation buffer (prepared as described in the kit) is added to each well. In a separate plate, compounds are diluted in DMSO (400-fold over the final concentration in the assay well) and 25 nl is acoustically transferred to the appropriate well in the assay cell plate. The plates were then incubated for 60 minutes at 37 degrees. 10 ul of detection buffer (also prepared as described in the IP-One kit) is added to each well and the plates are incubated for 60 minutes in the dark. The plates are then read in a Perkin Elmer EnVision or equivalent reader able to measure FRET. Fluorescent ratio of emission at 665 and 620 nm is then converted to IP1 concentration by back calculating from an IP1 standard curve prepared at the time of the assay.

T1 sequence (O14842 whole entry): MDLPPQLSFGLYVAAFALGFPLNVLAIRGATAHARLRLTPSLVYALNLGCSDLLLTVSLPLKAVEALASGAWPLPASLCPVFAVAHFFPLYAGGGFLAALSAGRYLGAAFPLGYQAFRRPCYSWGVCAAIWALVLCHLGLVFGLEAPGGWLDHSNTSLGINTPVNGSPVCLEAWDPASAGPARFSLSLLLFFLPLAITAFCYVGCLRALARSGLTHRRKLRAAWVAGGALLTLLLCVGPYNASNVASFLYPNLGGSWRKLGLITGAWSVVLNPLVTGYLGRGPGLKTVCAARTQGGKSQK

| EC50 [nM] | SMILES |
| --- | --- |
| 54 | C[C@H](C(=O)O)[C@H](c1ccc2c(c1)CC(C1CCN(c3ncccc3C(F)(F)F)CC1)OC2)C1CC1 (stereo partly drawn) [Example 40, (2S,3R)-3-cyclopropyl-2-methyl-3-(3-(1-(3-(trifluoromethyl)pyridin-2-yl)piperidin-4-yl)isochroman-6-yl)propanoic acid] |
| 8.1 | COc1cc(-c2ccc(C3COc4ccc([C@H](C5CC5)[C@H](C)C(=O)O)cc4C3)c(F)c2)ccn1 (single isomer, unassigned) [Example 18] |
| 15 | COc1cc(-c2ccc(C3COc4ccc([C@H](C5CC5)[C@H](C)C(=O)O)cc4C3)c(F)c2)ccn1 (single isomer, unassigned) [Example 17] |
| 0.5 | COc1ccc(F)c(-c2ccc([C@H]3Cc4cc([C@H](C5CC5)[C@H](C)C(=O)O)ccc4CO3)cc2)c1 [Example 22, (2S,3R)-3-cyclopropyl-3-((R)-3-(2′-fluoro-5′-methoxy-1,1′-biphenyl-4-yl)isochroman-6-yl)-2-methylpropanoic acid] |
| 0.42 | COc1cc(-c2ccc(C3CCc4ccc(C(C5CC5)C(C)C(=O)O)cc4C3)c(F)c2)ccn1 (single isomer, unassigned) [Example 37] |
| 0.76 | COc1cc(-c2ccc(C3Cc4cc([C@H](C5CC5)[C@H](C)C(=O)O)ccc4CO3)cc2)c(F)cn1 (single isomer, unassigned) [Example 39A] |

Source: US10662171B2, “Antidiabetic bicyclic compounds” (Merck Sharp & Dohme Corp., priority 2014, dated 2020)
